Source: US12503454B2, “LPA receptor antagonists and uses thereof” (Gilead Sciences, Inc., priority 2021, dated 2025)

Target: human LPAR1 (Homo sapiens, UniProt Q92633)
Experiment: LPAR1 intracellular calcium mobilization assay (antagonist mode, FLIPR)
Format: cell-based
Settings: CHO-K1 EDG2 cells expressing human LPAR1; test compound 0.5 nM to 10 μM pre-incubated 60 minutes at 37° C., then LPA 18:2 at EC80 concentration (100 nM)
Procedure: In vitro LPAR1 activity was measured in an intracellular calcium mobilization assay. CHO-K1 EDG2 cells (DiscoverX cat #93-0644C2) expressing human LPAR1 (NM_001401.3) were seeded in a total volume of 25 μL of Dulbecco's Modification of Eagle's Medium (DMEM) with 10% Fetal Bovine Serum, 1× PenStrepGlutamine, 300 μg/ml Hygromycin, and 800 μg/ml G418 into 384-well tissue culture plate (Grenier #781091) at 15,000 cells/well and incubated at 37° C. overnight. Prior to testing, 25 μL Calcium Loading Dye Component A (FLIPR Calcium 6 Assay Kit Molecular Device # R8190) and 2.5 mM Probenecid (Invitrogen # P36400, prepared fresh) in Hank's Balanced Salt Solution (Corning #21-023-CV), 20 mM HEPES (Corning #25-060-CI), 0.1% Bovine Serum Albumin (Sigma-Aldrich # A7906-500G) was add to the cells for 60 minutes at 37° C.
Agonist dose curves of LPA 18:2 (Avanti Polar Lipids cat #857138, 0.5 nM to 10 μM) were recorded to determine the LPA 18:2 EC80 for subsequent antagonist assays. For agonist dose curves, cells were removed from the incubator 2 hours after dye loading and transferred to the FLIPR Tetra instrument (Molecular Devices, San Jose, CA). Calcium mobilization was monitored for 5 min and 10 μL 6×LPA in HBSS/20 mM Hepes/0.1% bovine serum albumin (BSA) was added to the cells 5 seconds into the assay.
To determine the LPAR1 antagonist activity of test compounds, cells were pre-incubated with test compound at a dose range of 0.5 nM to 10 μM, followed by LPA at EC80 concentration (100 nM). After dye loading, cells were removed from the incubator and 0.3 μL of 200× antagonist was added. Cells were incubated for 60 minutes at 37° C. Antagonist activity was measured on a FLIPR Tetra. Calcium mobilization was monitored for 3.5 minutes and 10 μL 6×EC80 LPA in HBSS, 20 mM HEPES, and 0.1% BSA was added to the cells 5 seconds into the assay. Signal amplitude (Maximum minus minimum) values were plotted against log10 of antagonist concentration using Dose Response Tool (Gilead Sciences Inc.) to determine […].
To assess the antagonistic potential of exemplified compounds […] were determined for Compounds 1 to 66 in the LPAR1 calcium mobilization assay. The compound numbers correspond to the compound numbers in Examples 1 to 18. N/A=not available.

Chain of human LPAR1 (Q92633 whole entry): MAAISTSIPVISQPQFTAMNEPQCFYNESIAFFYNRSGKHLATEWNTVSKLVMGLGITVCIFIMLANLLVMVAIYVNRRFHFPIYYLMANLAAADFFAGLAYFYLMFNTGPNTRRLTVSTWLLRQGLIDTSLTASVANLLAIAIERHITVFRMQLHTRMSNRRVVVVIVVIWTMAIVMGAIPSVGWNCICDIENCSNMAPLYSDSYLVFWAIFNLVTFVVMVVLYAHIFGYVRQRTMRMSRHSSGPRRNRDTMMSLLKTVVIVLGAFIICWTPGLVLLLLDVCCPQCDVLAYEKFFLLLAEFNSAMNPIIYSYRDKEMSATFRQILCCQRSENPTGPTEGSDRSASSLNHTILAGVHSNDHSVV

SMILES | EC50 [nM]
C[C@@H](OC(=O)Nc1c(-c2ccc(C(=O)Nc3ccnc(OC(F)F)c3)cn2)nnn1C)c1cc(F)cnc1F [Compound 33, (R)-1-(2,5-difluoro-pyridin-3-yl)ethyl (4-(5-((2-(difluoro-methoxy)pyridin-4-yl)carbamoyl)-pyridin-2-yl)-1-methyl-1H-1,2,3-triazol-5-yl)-carbamate] | 273
C[C@@H](OC(=O)Nc1c(-c2ccc(C(=O)Nc3ccncc3)cn2)nnn1C)c1cccnc1Cl [Compound 1, (R)-1-(2-chloropyridin-3-yl)ethyl (1-methyl-4-(5-(pyridin-4-ylcarbamoyl)pyridin-2-yl)-1H-1,2,3-triazol-5-yl)carbamate] | 75.8
C[C@@H](OC(=O)Nc1c(-c2ccc(C(=O)NC34CC(C(F)F)(C3)C4)cn2)nnn1C)c1cccnc1Cl [Compound 6] | 56.1
C[C@@H](OC(=O)Nc1c(-c2ccc(C(=O)NC34CC(F)(C3)C4)cn2)nnn1C)c1cc(F)cnc1F [Compound 20, (R)-1-(2,5-difluoro-pyridin-3-yl)ethyl (4-(5-((3-fluoro-bicyclo[1.1.1]-pentan-1-yl)-carbamoyl)pyridin-2-yl)-1-methyl-1H-1,2,3-triazol-5-yl)carbamate] | 313
C[C@@H](OC(=O)Nc1c(-c2ccc(C(=O)Nc3ccnc(Cl)c3F)cn2)nnn1C)c1cc(F)cnc1F [Compound 35, (R)-1-(2,5-difluoro-pyridin-3-yl)ethyl (4-(5-((2-chloro-3-fluoropyridin-4-yl)-carbamoyl)-pyridin-2-yl)-1-methyl-1H-1,2,3-triazol-5-yl)-carbamate] | 140
C[C@@H](OC(=O)Nc1c(-c2ccc(C(=O)Nc3ccnc(F)c3)cn2)nnn1C)c1cc(F)cnc1F [Compound 27, (R)-1-(2,5-difluoro-pyridin-3-yl)ethyl (4-(5-((2-fluoro-pyridin-4-yl)-carbamoyl)pyridin-2-yl)-1-methyl-1H-1,2,3-triazol-5-yl)-carbamate] | 42.8

Other lines, results leading:

EC50 [nM] | SMILES
58.1 | C[C@@H](OC(=O)Nc1c(-c2ccc(C(=O)NC34CC(Cl)(C3)C4)cn2)nnn1C)c1cccnc1F [Compound 55, (R)-1-(2-fluoropyridin-3-yl)ethyl (4-(5-((3-chlorobicyclo[1.1.1]pentan-1-yl)carbamoyl)pyridin-2-yl)-1-methyl-1H-1,2,3-triazol-5-yl)carbamate]
< 4.6 | C[C@@H](OC(=O)Nc1c(-c2ccc(C(=O)Nc3ccnc(C(F)(F)F)c3)cn2)nnn1C)c1cc(F)cnc1Cl [Compound 45, (R)-1-(2-chloro-5-fluoropyridin-3-yl)ethyl (1-methyl-4-(5-((2-(trifluoromethyl)pyridin-4-yl)carbamoyl)pyridin-2-yl)-1H-1,2,3-triazol-5-yl)carbamate]
9 | C[C@@H](OC(=O)Nc1c(-c2ccc(C(=O)Nc3cc(Cl)nc(C(F)(F)F)c3)cn2)nnn1C)c1cc(F)cnc1F [Compound 43, (R)-1-(2,5-difluoro-pyridin-3-yl)ethyl (4-(5-((2-chloro-6-(trifluoromethyl)-pyridin-4-yl)-carbamoyl)pyridin-2-yl)-1-methyl-1H-1,2,3-triazol-5-yl)-carbamate]
273 | C[C@@H](OC(=O)Nc1c(-c2ccc(C(=O)NC3CC(c4ccccc4)C3)cn2)nnn1C)c1cc(F)cnc1F (stereo partly drawn) [Compound 44, (R)-1-(2,5-difluoro-pyridin-3-yl)ethyl (1-methyl-4-(5-((3-phenylcyclo-butyl)carbamoyl)-pyridin-2-yl)-1H-1,2,3-triazol-5-yl)-carbamate]
10.1 | C[C@@H](OC(=O)Nc1c(-c2ccc(C(=O)Nc3cnc(C(F)(F)F)s3)cn2)nnn1C)c1cc(F)cnc1F [Compound 42, (R)-1-(2,5-difluoro-pyridin-3-yl)ethyl (1-methyl-4-(5-((2-(trifluoromethyl)-thiazol-5-yl)-carbamoyl)pyridin-2-yl)-1H-1,2,3-triazol-5-yl)-carbamate]
